Test results published in patent publication US20190203409A1, “ANTIBACTERIAL REGENERATED CELLULOSIC FIBERS AND PROCESS OF PREPARATION THEREOF” (GRASIM INDUSTRIES LIMITED, priority 2016, published 2019).

Tested on: S. Aureus
Assay: AATCC 147-2013 antibacterial test
Assay type: cell-based
Conditions: 0.5% concentration to weight of cellulose
Description: An antibacterial agent is used in Standard VSF or Modal or Lyocell manufacturing process to improve antibacterial performance of fiber. A small amount of chemical DDAC (i.e. 0.05-1% on weight of cellulose fiber) is infused by the way of: pouring or spraying or soaking or coating or padding or dipping and the like on the fiber during fiber manufacturing process and then fibers were dried and finally packed into the bales. The resultant fiber was then evaluated for antibacterial performance in external biological laboratory as per standard test methods.

## Oc1cc(Cl)ccc1Oc1ccc(Cl)cc1Cl [Triclosan]
  antibacterial activity (in words): did not demonstrate any antibacterial activity
